Reference: ChEMBL document CHEMBL1134994, “Synthesis and in vitro antiprotozoal activity of 5-nitrothiophene-2-carboxaldehyde thiosemicarbazone derivatives” (Bioorg Med Chem Lett, 2002)

Tests used:
Format in all cases: functional, organism-based
Giardia intestinalis = assay: Inhibitory concentration against G. Lamblia (IMSS-0989) for antigiardial activity; conditions: Giardia duodenalis
Entamoeba histolytica = assay: Inhibitory concentration against Entamoeba histolytica (HK-9) for antiprotozoal activity
Trichomonas vaginalis = assay: Inhibitory concentration against Trichomonas vaginalis (tv-43) for anti-trichomonal activity

Compound	IC50 (Giardia intestinalis)	IC50 (Entamoeba histolytica)	IC50 (Trichomonas vaginalis)
CC(C)/N=C(\S)N/N=C/c1ccc([N+](=O)[O-])s1	26.2 µM	9.6 µM	5.94 µM
O=[N+]([O-])c1ccc(/C=N/N=C(\S)NC2CCCC2)s1	33 µM	2.86 µM	3.97 µM
CCC/N=C(\S)N/N=C/c1ccc([N+](=O)[O-])s1	57.3 µM	15.4 µM	21 µM
O=[N+]([O-])c1ccc(/C=N/N=C(\S)NC2CCCCC2)s1	13.9 µM	2.41 µM	10.7 µM
CC(C)CN(CC(C)C)/C(S)=N/N=C/c1ccc([N+](=O)[O-])s1	12 µM	11.6 µM	4.44 µM

The remaining compounds from weak to strong by IC50 (Giardia intestinalis), led by results:

IC50 (Giardia intestinalis)	IC50 (Entamoeba histolytica)	IC50 (Trichomonas vaginalis)	Compound
33.3 µM	13.5 µM	6.31 µM	CC(C)C/N=C(\S)N/N=C/c1ccc([N+](=O)[O-])s1
17.2 µM	12.2 µM	1.49 µM	CCCC/N=C(\S)N/N=C/c1ccc([N+](=O)[O-])s1
11.7 µM	8.3 µM	18.3 µM	CN(/C(S)=N/N=C/c1ccc([N+](=O)[O-])s1)C1CCCCC1
8.47 µM	1.71 µM	8.78 µM	O=[N+]([O-])c1ccc(/C=N/N=C(\S)N2CCCCCC2)s1
8.2 µM	6.4 µM	4.06 µM	CCCN(CCC)/C(S)=N/N=C/c1ccc([N+](=O)[O-])s1
8.03 µM	10.1 µM	6.01 µM	CCN(CC)/C(S)=N/N=C/c1ccc([N+](=O)[O-])s1
1.16 µM	2.1 µM	1.92 µM	Cc1ncc([N+](=O)[O-])n1CCO [METRONIDAZOLE]
